These results are taken from BindingDB's records for patent US20250248955 (Longivitron (Suzhou) Biotechnology Co., 2025).

The test has as its target T1, Acetyl-CoA acetyltransferase, mitochondrial (Homo sapiens, UniProt P24752).
T1 sequence (P24752 whole entry): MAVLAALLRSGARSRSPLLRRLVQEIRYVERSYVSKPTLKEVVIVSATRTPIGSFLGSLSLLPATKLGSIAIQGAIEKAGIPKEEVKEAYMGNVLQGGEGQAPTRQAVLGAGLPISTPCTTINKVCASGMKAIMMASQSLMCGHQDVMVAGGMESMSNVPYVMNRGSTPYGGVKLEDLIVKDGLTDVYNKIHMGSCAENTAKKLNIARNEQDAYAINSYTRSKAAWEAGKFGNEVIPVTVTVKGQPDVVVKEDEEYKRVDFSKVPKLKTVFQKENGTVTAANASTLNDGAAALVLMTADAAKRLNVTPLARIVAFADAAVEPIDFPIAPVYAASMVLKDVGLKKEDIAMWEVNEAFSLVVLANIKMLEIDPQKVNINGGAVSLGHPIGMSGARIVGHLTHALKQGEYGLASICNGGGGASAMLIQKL
Nature of the test: Experimental Method Screening Method of ACAT1 Small Molecule Inhibitors. On the procedure:
ACAT1 can catalyze two molecules of acetyl coenzyme A to reversibly form acetoacetyl coenzyme A. Its activity was measured through the reaction between ACAT1-catalyzed substrate acetoacetyl-coenzyme A and coenzyme A, from which the product acetyl-coenzyme A is produced. Since acetoacetyl-coenzyme A is specifically absorbed in a specific spectrum, the impact on the enzyme activity of ACAT1 can be reflected through the detection of an increase or decrease of absorption in a specific spectrum.ACAT1 recombinant proteins were expressed and purified by Escherichia coli, and the concentration of ACAT1 recombinant proteins obtained was 1 mg/mL. The buffers adopted for ACAT1 small molecule inhibitor screening were 50 mM Tris-HCl (pH 8.1), 20 mM MgCl2, and 40 mM KCl. In 200 μL of enzyme catalytic system, 1 μL of ACAT1 recombinant proteins, the substrate […] whose final concentration was changed from 25 μM to 100 μM through a CPM probe, and small molecule inhibitors at different concentrations were added, respectively.
One may read the IC50 as the concentration that inhibits the measured activity by half. Lower therefore signals greater potency in that assay. Consider `COc1ccc([C@H](O)[C@@H](C)Oc2ccc(OC(=O)/C=C/c3ccc(O)c(O)c3)cc2OC)cc1OC` [US20250248955, Compound M2], for which the IC50 is > 100 µM.
With `COCOc1ccc(/C=C/C(=O)Nc2ccc(OCCc3ccc(O)cc3)cc2)cc1OCOC` [US20250248955, Compound M15], half-maximal inhibition (IC50) required 312 µM.
Next, `O=C(/C=C/c1ccc(O)c(O)c1)Nc1ccc(OCCc2ccc(O)cc2)cc1` [US20250248955, Compound M8]: 114 µM; `COCOc1ccc(/C=C/C(=O)Nc2ccc(OCCc3ccccc3)cc2)cc1OCOC` [US20250248955, Compound M11]: 136 µM; `O=C(/C=C/c1ccc(O)c(O)c1)Nc1ccc(OCCc2ccccc2)cc1` [US20250248955, Compound M4]: 112 µM.
Compound `O=C(/C=C/c1ccc(O)c(O)c1)Nc1ccc(OCCc2ccc(F)cc2)cc1` [US20250248955, Compound M6] yielded an IC50 of 134 µM.
Next, `COCOc1ccc(/C=C/C(=O)Nc2ccc(OCCc3ccc(C)cc3)cc2)cc1OCOC` [US20250248955, Compound M14]: 111 µM; `COCOc1ccc(/C=C/C(=O)Nc2ccc(OCCc3ccc(OC)c(OC)c3)cc2)cc1OCOC` [US20250248955, Compound M16]: 172 µM; `COc1ccc([C@@H](O)[C@@H](C)Oc2ccc(OC(=O)/C=C/c3ccc(O)c(O)c3)cc2OC)cc1OC` [US20250248955, Compound M3]: > 100 µM.
The same measure for `COCOc1ccc(/C=C/C(=O)Nc2ccc(OCCc3ccc(F)cc3)cc2)cc1OCOC` [US20250248955, Compound M13]: 152 µM.
